In ChEMBL document CHEMBL1201862, “PubChem BioAssay data set” (2004):
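Protocol summary: plate cells (96-well), add compound at 5 concentrations, incubate 48 h, interpolate endpoints linearly. GI50 is the concentration that inhibits growth by half.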 Calls of active or inactive are those of the source. Rule as the data show it: active = GI50 up to about 1.1 µM and inactive = higher.

How the values were obtained:
Assay in all cases: NCI-60 cell line screen, 48 h
HT-29 = system: HT-29
UO-31 = system: UO-31
OVCAR-3 = system: OVCAR-3
NCI-H522 = system: NCI-H522
SNB-19 = system: SNB-19
SF-268 = system: SF-268
SF-539 = system: SF-539
KM12 = system: KM12
786-0 = system: 786-0
NCI-H460 = system: NCI-H460
OVCAR-4 = system: OVCAR-4
ACHN = system: ACHN
RPMI-8226 = system: RPMI-8226
SK-OV-3 = system: SK-OV-3
HCT-15 = system: HCT-15
CCRF-CEM = system: CCRF-CEM
RXF 393 = system: RXF 393
IGROV-1 = system: IGROV-1

Row | Structure (SMILES) | GI50 (HT-29) | GI50 (UO-31) | GI50 (OVCAR-3) | GI50 (NCI-H522) | GI50 (SNB-19) | GI50 (SF-268) | GI50 (SF-539) | GI50 (KM12) | GI50 (786-0) | GI50 (NCI-H460) | GI50 (OVCAR-4) | GI50 (ACHN) | GI50 (RPMI-8226) | GI50 (SK-OV-3) | GI50 (HCT-15) | GI50 (CCRF-CEM) | GI50 (RXF 393) | GI50 (IGROV-1)
1 | CN(/C(=N\O)c1ccccc1)c1ccccc1 | 30.5 µM (inactive) | 25.5 µM (inactive) | 21.7 µM (inactive) | 18 µM (inactive) | 27.9 µM (inactive) | 28.1 µM (inactive) | 22.6 µM (inactive) | 36.3 µM (inactive) | 21.7 µM (inactive) | 32.5 µM (inactive) | 33.7 µM (inactive) | – | – | – | – | – | – | –
2 | C/C(=N\NS(=O)(=O)c1ccccc1)c1ccc(Cl)c(Cl)c1 | 44.7 µM (inactive) | 45.4 µM (inactive) | 25.3 µM (inactive) | – | – | > 100 µM (inactive) | 43 µM (inactive) | 71.1 µM (inactive) | 82.2 µM (inactive) | 46.1 µM (inactive) | 58.9 µM (inactive) | 46.6 µM (inactive) | 67.5 µM (inactive) | 67.3 µM (inactive) | 57 µM | > 100 µM (inactive) | 55.3 µM (inactive) | 72.9 µM (inactive)
3 | O=C1/C(=C/c2ccccc2)CN(C(=O)OCC(Cl)(Cl)Cl)C/C1=C\c1ccccc1 | 1.6 µM (inactive) | 3.52 µM (inactive) | 4.19 µM (inactive) | 3.47 µM (inactive) | 3.27 µM (inactive) | 3.81 µM (inactive) | 4.29 µM (inactive) | 1.69 µM (inactive) | 2.14 µM (inactive) | 2.1 µM (inactive) | – | 1.98 µM (inactive) | 0.0394 µM (active) | 7.48 µM (inactive) | 1.95 µM | 1.71 µM (inactive) | 1.68 µM (inactive) | 3.54 µM (inactive)
4 | COC1CC(n2cnc3c(N)ncnc32)OC1CO (stereo not given) | > 100 µM (inactive) | > 100 µM (inactive) | > 100 µM (inactive) | > 100 µM (inactive) | > 100 µM (inactive) | > 100 µM (inactive) | > 100 µM (inactive) | > 100 µM (inactive) | > 100 µM (inactive) | > 100 µM (inactive) | > 100 µM (inactive) | > 100 µM (inactive) | > 100 µM (inactive) | – | > 100 µM | 56 µM (inactive) | – | > 100 µM (inactive)
5 | COc1ccc2cc3nc(O)cc(O)c3cc2c1OC | > 100 µM (inactive) | > 100 µM (inactive) | > 100 µM (inactive) | – | > 100 µM (inactive) | > 100 µM (inactive) | > 100 µM (inactive) | > 100 µM (inactive) | > 100 µM (inactive) | > 100 µM (inactive) | > 100 µM (inactive) | > 100 µM (inactive) | > 100 µM (inactive) | – | > 100 µM | > 100 µM (inactive) | > 100 µM (inactive) | > 100 µM (inactive)
6 | O=C1CCCC/C1=C1\C(=O)Nc2cc(F)ccc21 | > 100 µM (inactive) | > 100 µM (inactive) | – | > 100 µM (inactive) | > 100 µM (inactive) | > 100 µM (inactive) | > 100 µM (inactive) | > 100 µM (inactive) | > 100 µM (inactive) | > 100 µM (inactive) | > 100 µM (inactive) | > 100 µM (inactive) | > 100 µM (inactive) | > 100 µM (inactive) | > 100 µM | > 100 µM (inactive) | > 100 µM (inactive) | > 100 µM (inactive)
7 | C/C(CC(=O)Nc1ccc(C)c(C)c1)=N\NC(N)=S | > 100 µM (inactive) | > 100 µM (inactive) | > 100 µM (inactive) | > 100 µM (inactive) | – | > 100 µM (inactive) | > 100 µM (inactive) | > 100 µM (inactive) | > 100 µM (inactive) | > 100 µM (inactive) | – | > 100 µM (inactive) | > 100 µM (inactive) | > 100 µM (inactive) | – | > 100 µM (inactive) | > 100 µM (inactive) | > 100 µM (inactive)
8 | CNS(=O)(=O)NN(C)S(=O)(=O)c1ccc2ccccc2c1 | > 100 µM (inactive) | > 100 µM (inactive) | – | > 100 µM (inactive) | > 10 µM (inactive) | – | > 100 µM (inactive) | > 100 µM (inactive) | > 100 µM (inactive) | – | > 100 µM (inactive) | > 100 µM (inactive) | > 100 µM (inactive) | > 100 µM (inactive) | > 100 µM | > 100 µM (inactive) | > 100 µM (inactive) | > 100 µM (inactive)
9 | CCOC(=O)NC(=O)c1cn(C2OC(CO)C(O)C2O)c(=O)[nH]c1=O (stereo not given) | > 100 µM (inactive) | > 100 µM (inactive) | > 100 µM (inactive) | > 100 µM (inactive) | > 100 µM (inactive) | > 100 µM (inactive) | > 100 µM (inactive) | > 100 µM (inactive) | > 100 µM (inactive) | > 100 µM (inactive) | > 100 µM (inactive) | > 100 µM (inactive) | > 100 µM (inactive) | > 100 µM (inactive) | > 100 µM | – | > 100 µM (inactive) | > 100 µM (inactive)
